Experimental data taken from patent US7964647B2 (Mutual Pharmaceutical Company, Inc., priority 2007, dated 2011).

Test system: patients with acute gout flare (acute gouty arthritic attack)
Assay: Same acute gout flare study: safety (treatment emergent adverse events)
Format: in vivo, human
Source text: A sufficient number of patients are screened to enroll and randomize 300 patients (100 patients per treatment group) who meet the criteria of the American College of Rheumatology (ACR) for acute arthritis of gout. […] Secondary objectives of the study are to compare low-dose and standard-dose dosing regimens of colchicine with respect to pain, time to response and complete pain relief, interference with sleep, and signs and symptoms of inflammation and to determine the safety of colchicine when administered in the two different dosing regimens.
Safety assessments will be made based on patient and Investigator inputs. Patients will be initially screened in the clinic for inclusion by review of medical history and concomitant medication use, physical examination, measurement of vital signs (oral temperature, sitting radial or brachial pulse rate, respiratory rate, and sitting blood pressure), body weight, and clinical laboratory testing (serum biochemistry, complete blood count, and urinalysis). After randomization, clinical laboratory tests, concomitant medication use, medical history and current complaints (AE) will be reviewed every 3 months until an acute gout flare occurs in order to ensure continued eligibility. Compliance with key inclusion/exclusion criteria (based on intervening medical history and concomitant medication use) will be re confirmed by the Gout Flare Call Center prior to authorizing the start of study drug. Following the start of study drug, patients will record any severe gastrointestinal AEs on their diaries and these will be recorded in the Case Report Form (CRF) at each clinic visit. Full physical examinations and clinical laboratory testing will be conducted at the final clinic visit (Visit 4 or Visit 5). Vital signs and body weight will be measured at each Post Flare visit (Visit 3 and 4 or 5). For those patients in whom there is an unresolved AE or clinically significant treatment emergent laboratory abnormality, there will be one additional follow up visit 14 days post flare onset (Visit 6).
Safety analysis will be performed by coding adverse events using a standardized medical dictionary and the incidence summarized by treatment group; tabulations will be prepared of all AEs as well as by relationship and by severity. Adverse events resulting in termination and events meeting regulatory criteria for seriousness will also be tabulated separately. Descriptive statistics (mean, median, standard deviation, and range) of clinical laboratory testing results and vital sign measurements will be generated for each treatment group and change from the most recent value prior to onset of the acute gout flare calculated; no inferential testing will be performed. Treatment emergent abnormalities on physical examination will be tabulated and listed by treatment group. By patient listings of all safety data and concomitant medication use will be generated.

Q: Which results are given for `COc1cc2c(c(OC)c1OC)-c1ccc(OC)c(=O)cc1[C@@H](NC(C)=O)CC2` [Colchicine, (−)-N-[(7S,12aS)-1,2,3,10-tetramethoxy-9-oxo-5,6,7,9-tetrahydrobenzo[a]heptalen-7-yl]-acetamide]?
A: Patients with severe TEAE: Gout (All colchicine, N = 126): 0 n; Patients with severe TEAE: Metabolism and Nutrition Disorders (All colchicine, N = 126): 0 n; Number (%) of patients with a TEAE discontinuing study (High dose 4.8 mg, N = 52): 0 n (%); Number (%) of patients with a treatment emergent SAE (High dose 4.8 mg, N = 52): 0 n (%); Number (%) of patients with at least one TEAE (High dose 4.8 mg, N = 52): 40 (76.9) n (%); Number (%) of patients with at least one mild TEAE (High dose 4.8 mg, N = 52): 15 (28.8) n (%); Number (%) of patients with at least one moderate TEAE (High dose 4.8 mg, N = 52): 15 (28.8) n (%); Number (%) of patients with at least one severe TEAE (High dose 4.8 mg, N = 52): 10 (19.2) n (%); Total number of TEAEs (High dose 4.8 mg, N = 52, safety population): 85; Patients with at least one drug-related TEAE (High dose, N = 52): 38 (73.1) n (%); Patients with drug-related TEAE: Diarrhea (High dose, N = 52): 38 (73.1) n (%); Patients with drug-related TEAE: Gastro-intestinal Disorders (High dose, N = 52): 38 (73.1) n (%); Patients with drug-related TEAE: Nausea (High dose, N = 52): 7 (13.5) n (%); Patients with drug-related TEAE: Vomiting (High dose, N = 52): 8 (15.4) n (%); Patients with severe TEAE: Diarrhea (High dose, N = 52): 19.2%; Patients with severe TEAE: Gout (High dose, N = 52): 0 n; Patients with severe TEAE: Metabolism and Nutrition Disorders (High dose, N = 52): 0 n; Number (%) of patients with a TEAE discontinuing study (Low dose 1.8 mg, N = 74): 0 n (%); Number (%) of patients with a treatment emergent SAE (Low dose 1.8 mg, N = 74): 0 n (%); Number (%) of patients with at least one TEAE (Low dose 1.8 mg, N = 74): 27 (36.5) n (%); Number (%) of patients with at least one mild TEAE (Low dose 1.8 mg, N = 74): 19 (25.7) n (%); Number (%) of patients with at least one moderate TEAE (Low dose 1.8 mg, N = 74): 8 (10.8) n (%); Number (%) of patients with at least one severe TEAE (Low dose 1.8 mg, N = 74): 0 n (%); Number (%) of patients with at least one treatment-emergent gastrointestinal AE, captured on Adverse Event CRF, All (Low dose 1.8 mg, N = 74): 19 (25.7) Number (%); Number (%) of patients with at least one treatment-emergent gastrointestinal AE, captured on Adverse Event CRF, Severe (Low dose 1.8 mg, N = 74): 0 Number (%); Number (%) of patients with at least one treatment-emergent gastrointestinal AE, captured on Patient Diary or Adverse Event CRF, All (Low dose 1.8 mg, N = 74): 33 (44.6) Number (%); Number (%) of patients with at least one treatment-emergent gastrointestinal AE, captured on Patient Diary or Adverse Event CRF, Severe (Low dose 1.8 mg, N = 74): 3 (4.1) Number (%); Number (%) of patients with at least one treatment-emergent gastrointestinal AE, captured on Patient Diary, Severe (Low dose 1.8 mg, N = 74): 3 (4.1) Number (%); Total number of TEAEs (Low dose 1.8 mg, N = 74, safety population): 34; Patients with at least one severe TEAE (any) (Low dose, N = 74): 0 n; Patients with drug-related TEAE: Diarrhea (Low dose, N = 74): 21.6%; Patients with drug-related TEAE: Gastro-intestinal Disorders (Low dose, N = 74): 24.3%; Patients with drug-related TEAE: Vomiting (Low dose, N = 74): 0 n; Patients with severe TEAE: Diarrhea (Low dose, N = 74): 0 n; Patients with severe TEAE: Gastrointestinal Disorders (Low dose, N = 74): 0 n; Patients with severe TEAE: Gout (Low dose, N = 74): 0 n; Patients with severe TEAE: Melaena (Low dose, N = 74): 0 n; Patients with severe TEAE: Metabolism and Nutrition Disorders (Low dose, N = 74): 0 n; Patients with severe TEAE: Musculoskeletal and Connective Tissue Disorders (Low dose, N = 74): 0 n; Patients with severe TEAE: Nausea (Low dose, N = 74): 0 n; Patients with severe TEAE: Pain in Extremity (Low dose, N = 74): 0 n; Number (%) of patients with at least one treatment-emergent gastrointestinal AE, captured on Adverse Event CRF, All (Standard dose 4.8 mg, N = 52): 40 (76.9)^2 Number (%); Number (%) of patients with at least one treatment-emergent gastrointestinal AE, captured on Adverse Event CRF, Severe (Standard dose 4.8 mg, N = 52): 10 (19.2) Number (%); Number (%) of patients with at least one treatment-emergent gastrointestinal AE, captured on Patient Diary or Adverse Event CRF, All (Standard dose 4.8 mg, N = 52): 49 (94.2)^2 Number (%); Number (%) of patients with at least one treatment-emergent gastrointestinal AE, captured on Patient Diary or Adverse Event CRF, Severe (Standard dose 4.8 mg, N = 52): 18 (34.6) Number (%); Number (%) of patients with at least one treatment-emergent gastrointestinal AE, captured on Patient Diary, All (Standard dose 4.8 mg, N = 52): 48 (92.3)^2 Number (%); Number (%) of patients with at least one treatment-emergent gastrointestinal AE, captured on Patient Diary, Severe (Standard dose 4.8 mg, N = 52): 13 (25.0) Number (%); Proportion of patients with vomiting (high-dose 4.8 mg): 15.4%; Occurrence of severe diarrhea (low-dose group 1.8 mg): not occurring; Occurrence of vomiting (low-dose group 1.8 mg): not occurring; Proportion of patients with diarrhea (standard dose 4.8 mg): 73.1%; Proportion of patients with gastrointestinal side effects (standard dose 4.8 mg): 73.1%
